Reference: PubChem BioAssay AID1918945 (Molecular Pharmacology Branch, DTP, NCI, 2023)

System: 883617-216-R-J1-PDC complex spheroid viability
Assay: Anticancer human tumor 883617-216-R-J1-PDC patient-derived bladder carcinoma cell line growth inhibition
Conditions: for IC50: curve of first compound; for viability, T/C: stronger effect = lower value
In short: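 Complex spheroids of tumor cells with HUVEC and human MSCs, exposed to iadademstat combined with other agents. Each agent tested in half-log steps from near clinical Cmax (else 10 microM top), DMSO ≤0.25%.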

[1] = second compound 0.1 µM, first compound 0.00949 µM
[2] = second compound 0.1 µM, first compound 0.03 µM
[3] = second compound 0.1 µM, first compound 0.0949 µM
[4] = second compound 0.1 µM, first compound 0.3 µM
[5] = second compound 0.1 µM, first compound 0.949 µM
[6] = second compound 0.1 µM, first compound 3 µM
[7] = second compound 0.316 µM, first compound 0.00949 µM
[8] = second compound 0.316 µM, first compound 0.03 µM
[9] = second compound 0.316 µM, first compound 0.0949 µM
[10] = second compound 0.316 µM, first compound 0.3 µM
[11] = second compound 0.316 µM, first compound 0.949 µM
[12] = second compound 0.316 µM, first compound 3 µM
[13] = second compound 1 µM, first compound 0.00949 µM
[14] = second compound 1 µM, first compound 0.03 µM
[15] = second compound 1 µM, first compound 0.0949 µM
[16] = second compound 1 µM, first compound 0.3 µM
[17] = second compound 1 µM, first compound 0.949 µM
[18] = second compound 1 µM, first compound 3 µM
[19] = second compound 3.16 µM, first compound 0.00949 µM
[20] = second compound 3.16 µM, first compound 0.03 µM
[21] = second compound 3.16 µM, first compound 0.0949 µM
[22] = second compound 3.16 µM, first compound 0.3 µM
[23] = second compound 3.16 µM, first compound 0.949 µM
[24] = second compound 3.16 µM, first compound 3 µM
[25] = second compound 10 µM, first compound 0.00949 µM
[26] = second compound 10 µM, first compound 0.03 µM
[27] = second compound 10 µM, first compound 0.0949 µM
[28] = second compound 10 µM, first compound 0.3 µM
[29] = second compound 10 µM, first compound 0.949 µM
[30] = second compound 10 µM, first compound 3 µM
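Also: exposure lasted seven days after three days of spheroid growth.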
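For viability, T/C in this document: 100% = DMSO vehicle control luminescence.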

SMILES: Cn1ncnc1C1c2n[nH]c(=O)c3cc(F)cc(c23)NC1c1ccc(F)cc1 (stereo not given) + NC1CC1c1ccc(-c2cccc(O)c2)cc1
- IC50 (second compound 0.1 µM): 15.1 nM
- IC50 (second compound 0.316 µM): 16.2 nM
- IC50 (second compound 1 µM): 12.4 nM
- IC50 (second compound 3.16 µM): 8.5 nM
- IC50 (second compound 10 µM): 6.41 nM
- viability, T/C (second compound 0.1 µM, first compound 0.000316 µM): 105%
- viability, T/C (second compound 0.1 µM, first compound 0.001 µM): 95.4%
- viability, T/C (second compound 0.1 µM, first compound 0.00316 µM): 76.4%
- viability, T/C (second compound 0.1 µM, first compound 0.01 µM): 53%
- viability, T/C (second compound 0.1 µM, first compound 0.0316 µM): 44.1%
- viability, T/C (second compound 0.1 µM, first compound 0.1 µM): 37.8%
- viability, T/C (second compound 0.316 µM, first compound 0.000316 µM): 116%
- viability, T/C (second compound 0.316 µM, first compound 0.001 µM): 103%
- viability, T/C (second compound 0.316 µM, first compound 0.00316 µM): 73%
- viability, T/C (second compound 0.316 µM, first compound 0.01 µM): 54.3%
- viability, T/C (second compound 0.316 µM, first compound 0.0316 µM): 47.1%
- viability, T/C (second compound 0.316 µM, first compound 0.1 µM): 40.8%
- viability, T/C (second compound 1 µM, first compound 0.000316 µM): 118%
- viability, T/C (second compound 1 µM, first compound 0.001 µM): 88.9%
- viability, T/C (second compound 1 µM, first compound 0.00316 µM): 68.6%
- viability, T/C (second compound 1 µM, first compound 0.01 µM): 50.2%
- viability, T/C (second compound 1 µM, first compound 0.0316 µM): 43%
- viability, T/C (second compound 1 µM, first compound 0.1 µM): 37.8%
- viability, T/C (second compound 3.16 µM, first compound 0.000316 µM): 92.4%
- viability, T/C (second compound 3.16 µM, first compound 0.001 µM): 93%
- viability, T/C (second compound 3.16 µM, first compound 0.00316 µM): 62.6%
- viability, T/C (second compound 3.16 µM, first compound 0.01 µM): 50.4%
- viability, T/C (second compound 3.16 µM, first compound 0.0316 µM): 42.2%
- viability, T/C (second compound 3.16 µM, first compound 0.1 µM): 33.9%
- viability, T/C (second compound 10 µM, first compound 0.000316 µM): 83.5%
- viability, T/C (second compound 10 µM, first compound 0.001 µM): 64.2%
- viability, T/C (second compound 10 µM, first compound 0.00316 µM): 58.1%
- viability, T/C (second compound 10 µM, first compound 0.01 µM): 44.9%
- viability, T/C (second compound 10 µM, first compound 0.0316 µM): 40.9%
- viability, T/C (second compound 10 µM, first compound 0.1 µM): 32.3%

SMILES: NS(=O)(=O)OCC1CC(n2ccc3c(NC4CCc5ccccc54)ncnc32)CC1O (stereo not given) + NC1CC1c1ccc(-c2cccc(O)c2)cc1
- IC50 (second compound 0.1 µM): 221 nM
- IC50 (second compound 0.316 µM): 230 nM
- IC50 (second compound 1 µM): 219 nM
- IC50 (second compound 3.16 µM): 202 nM
- IC50 (second compound 10 µM): 155 nM
- viability, T/C [1]: 123%
- viability, T/C [2]: 144%
- viability, T/C [3]: 112%
- viability, T/C [4]: 27.5%
- viability, T/C [5]: 10.8%
- viability, T/C [6]: 8.35%
- viability, T/C [7]: 124%
- viability, T/C [8]: 150%
- viability, T/C [9]: 127%
- viability, T/C [10]: 26.7%
- viability, T/C [11]: 12.9%
- viability, T/C [12]: 8.2%
- viability, T/C [13]: 135%
- viability, T/C [14]: 159%
- viability, T/C [15]: 111%
- viability, T/C [16]: 28.3%
- viability, T/C [17]: 13%
- viability, T/C [18]: 10.2%
- viability, T/C [19]: 122%
- viability, T/C [20]: 157%
- viability, T/C [21]: 94.5%
- viability, T/C [22]: 29.7%
- viability, T/C [23]: 10.5%
- viability, T/C [24]: 9.87%
- viability, T/C [25]: 126%
- viability, T/C [26]: 139%
- viability, T/C [27]: 71.8%
- viability, T/C [28]: 27%
- viability, T/C [29]: 12.9%
- viability, T/C [30]: 9.23%

SMILES: O=C(C=Cc1cccc(S(=O)(=O)Nc2ccccc2)c1)NO + NC1CC1c1ccc(-c2cccc(O)c2)cc1
- IC50 (second compound 0.1 µM): 89.8 nM
- IC50 (second compound 0.316 µM): 89.8 nM
- IC50 (second compound 1 µM): 69.8 nM
- IC50 (second compound 3.16 µM): 59.8 nM
- IC50 (second compound 10 µM): 36.7 nM
- viability, T/C [1]: 105%
- viability, T/C [2]: 76.1%
- viability, T/C [3]: 44.8%
- viability, T/C [4]: 30.9%
- viability, T/C [5]: 12.9%
- viability, T/C [6]: 0.56%
- viability, T/C [7]: 116%
- viability, T/C [8]: 83.8%
- viability, T/C [9]: 42.7%
- viability, T/C [10]: 28.7%
- viability, T/C [11]: 12%
- viability, T/C [12]: 0.43%
- viability, T/C [13]: 106%
- viability, T/C [14]: 72.3%
- viability, T/C [15]: 38.5%
- viability, T/C [16]: 25.8%
- viability, T/C [17]: 11.9%
- viability, T/C [18]: 0.47%
- viability, T/C [19]: 105%
- viability, T/C [20]: 67.7%
- viability, T/C [21]: 35.5%
- viability, T/C [22]: 23.5%
- viability, T/C [23]: 10.8%
- viability, T/C [24]: 0.43%
- viability, T/C [25]: 79.6%
- viability, T/C [26]: 53.2%
- viability, T/C [27]: 30.7%
- viability, T/C [28]: 23.4%
- viability, T/C [29]: 11.6%
- viability, T/C [30]: 0.29%
